Source: patent US20130029909A1, “TREATMENT OF CANCER” (priority 2009, published 2013)
Read-outs that look alike come from different tables or passages of the source.

What was measured:
H1299 cells [1] = assay: H1299 human NSCLC xenograft model in nu/nu mice; conditions: for median tumor volume (MTV) of survivors: D74, gemcitabine 120 mg/kg (five TFS), docetaxel 30 mg/kg (two D74 survivors); for tumor-free survival (TFS): 74 days post first treatment, CRLX101 10 mg/kg qwk×3, gemcitabine 120 mg/kg q3d×4, topotecan 12 mg/kg q4d×3
Protocol: (§1) Animals were randomly divided into seven groups and treatment was started on day-15 post implantation, when the mean tumor volume was approximately 115 mm^3.
(§2) Body weight was measured daily on Days 1-5, then twice weekly until the completion of the study. Tumor volume was measured twice weekly and each animal was euthanized when the calculated tumor volume reached the 2000 mm^3 endpoint, or on day-88 post implantation, whichever came first.

H1299 cells [2] = conditions: mouse, in vivo
Protocol: as §1, §2

[3] = tested on: human ovarian carcinoma A2780 cells; conditions: 72 h, MTS
Protocol: The human ovarian carcinoma A2780 cells were obtained from the American Type Culture Collection. […] The medium was replaced with fresh medium containing the test compound at concentrations ranging from 0.01 nmol/L to 1 μmol/L. Triplicate wells per plate were treated at each concentration. Controls were vehicle-treated cells and medium only blank. […] MTS assay reagent was prepared by diluting CellTiter 96 AQueous One Solution (Promega) 5-fold into PBS/glucose (4.5 g/L). Cell culture medium was aspirated and 100 μL of MTS reagent were added to each well. Plates were incubated at 37° C. for 1 h. The plates were shaken for 5 min and the absorbance was measured at 485 nm using a [sequence]uor Plus plate reader (Tecan). The percentage of cell survival was calculated relative to untreated cells, and IC50s were estimated from the graphs of log dose (nmol/L) versus % cell survival (GraphPad Prizm).

SMILES: CC(=O)O[C@@]12CO[C@@H]1C[C@H](O)[C@@]1(C)C(=O)[C@H](O)C3=C(C)[C@@H](OC(=O)[C@H](O)[C@@H](NC(=O)OC(C)(C)C)c4ccccc4)C[C@@](O)([C@@H](OC(=O)c4ccccc4)[C@H]21)C3(C)C [Docetaxel, docetaxel]
- median tumor volume (MTV) of survivors (H1299 cells [1]): 302 mm3
- group mean body weight loss (H1299 cells [1]; docetaxel 30 mg/kg on D21): 9.3%
- survival (H1299 cells [1]; docetaxel 30 mg/kg qwk×3, D74, no TFS): 20%
- BW Nadir (lowest group mean body weight, as % change from Day 1) (H1299 cells [1]; same regimens as E168, '—' indicates that no decrease in mean body weight was observed): −9.3%

SMILES: C#Cc1cccc(Nc2ncnc3cc(OCCOC)c(OCCOC)cc23)c1 [Erlotinib, erlotinib]
- BW Nadir (lowest group mean body weight, as % change from Day 1) (H1299 cells [2]): −2.9%

SMILES: Nc1ccn([C@@H]2O[C@H](CO)[C@@H](O)C2(F)F)c(=O)n1 [Gemcitabine, gemcitabine]
- BW Nadir (lowest group mean body weight, as % change from Day 1) (H1299 cells [2]): −2.3%
- tumor-free survival (TFS) (H1299 cells [1]): 50%
- median tumor volume (MTV) of survivors (H1299 cells [1]): 0 mm3

SMILES: CCc1c2c(nc3ccc(O)cc13)-c1cc3c(c(=O)n1C2)COC(=O)[C@]3(O)CC [SN-38, 20(S)-7-ethyl-10-hydroxycamptothecin]
- IC50 [3]: 2.44 nM

SMILES: CC[C@@]1(O)C(=O)OCc2c1cc1n(c2=O)Cc2cc3c(CN(C)C)c(O)ccc3nc2-1 [Topotecan, topotecan]
- BW Nadir (lowest group mean body weight, as % change from Day 1) (H1299 cells [2]): −0.6%
- tumor-free survival (TFS) (H1299 cells [1]): 10%
